# Laboratory results: patent US7384943B2, “Substituted chroman derivatives” (AstraZeneca AB, priority 1997, dated 2008)
row,melting point,SMILES
1,210 to 212 °C,"CN1CCN(c2cccc3c2C[C@H](NC(=O)c2ccc(N4CCOCC4)cc2)CO3)CC1 [Example 14, (S)-N-[5-(4-Methylpiperazin-1-yl)-3,4-dihydro-2H-1-benzopyran-3-yl]-4-morpholinobenzamide]"
2,211 to 212 °C,"CN1CCN(c2cccc3c2C[C@H](NC(=O)c2ccc(N4CCN(CCO)CC4)cc2)CO3)CC1 [Example 48, (S)-N-[5-(4-Methylpiperazin-1-yl)-3,4 dihydro-2H-1-benzopyran-3-yl]-4-[4-(2-hydroxyethyl)-piperazin-1-yl]benzamide]"
3,> 102 °C,"CN1CCN(c2cccc3c2C[C@H](NC(=O)c2ccc(N4CCNCC4)cc2)CO3)CC1 [Example 43, (S)-N-[5-(4-Methylpiperazin-1-yl)-3,4 dihydro-2H-1-benzopyran-3-yl]-4-(piperazin-1-yl)benzamide]"
4,88 °C (dec.),"CC(=O)N1CCN(c2ccc(C(=O)N[C@@H]3COc4cccc(N5CCN(C)CC5)c4C3)cc2)CC1 [Example 44, (S)-N-[5-(4-Methylpiperazin-1-yl)-3,4 dihydro-2H-1-benzopyran-3-yl]-4-(4-acetylpiperazin-1-yl)benzamide]"

# Continued, compound first:
row,SMILES,melting point
1,"CN1CCN(c2cccc3c2C[C@H](NC(=O)c2ccc(C(F)(F)F)cc2C(F)(F)F)CO3)CC1 [Example 28, (S)-N-[5-(4-Methylpiperazin-1-yl)-3,4-dihydro-2H-1-benzopyran-3-yl]-2,4-bis(trifluoromethyl)benzamide]",202 to 203 °C
2,"CN1CCN(c2cccc3c2C[C@H](NC(=O)c2ccc(C(=O)N4CCOCC4)cc2)CO3)CC1 [Example 45, (S)-N-[5-(4-Methylpiperazin-1-yl)-3,4 dihydro-2H-1-benzopyran-3-yl)-4-(morpholinocarbonyl)benzamide]",222 °C (dec.)
3,"CN1CCN(c2cccc3c2C[C@H](NC(=O)c2ccc(C(F)(F)F)cc2)CO3)CC1 [Example 19, (S)-N-[5-(4-Methylpiperazin-1-yl)-3,4-dihydro-2H-1-benzopyran-3-yl]-4-trifluoromethylbenzamide]",212 to 214 °C
4,"CN1CCN(c2cccc3c2C[C@H](NC(=O)c2ccc(C(=O)N(C)C)cc2)CO3)CC1 [Example 46, (S)-N-[5-(4-Methylpiperazin-1-yl)-3,4-dihydro-2H-benzopyran-3-yl)-4-(N,N-dimethylaminocarbonyl)benzamide]",219 °C (dec.)
5,"CN1CCN(c2cccc3c2C[C@H](NC(=O)c2ccc(N4CCNC(=O)CC4)cc2)CO3)CC1 [Example 35, (S)-N-[5-(4-Methylpiperazin-1-yl)-3,4-dihydro-2H-1-benzopyran-3-yl]-4-(hexa hydro-1,4-diazepin-5-on-1-yl)benzamide]",244 to 247 °C (dec.)
